Values quoted from earlier work in US20230109626A1 (priority 2020, published 2023).

Conditions: for solubility in water: at 20° C.

SMILES: [H]/N=C(\N/C(=N/[H])NCCCCCCNC(=N)NC(=N)Nc1ccc(Cl)cc1)Nc1ccc(Cl)cc1 [Chlorhexidine]
- solubility (temperature not given): about 80 mg/100 mL
- solubility in water: 80 mg/100 mL

SMILES: N=C(NCCCCCCNC(=N)NC(=N)Nc1ccc(Cl)cc1)NC(=N)Nc1ccc(Cl)cc1.O=C(O)[C@H](O)[C@@H](O)[C@H](O)[C@H](O)CO.O=C(O)[C@H](O)[C@@H](O)[C@H](O)[C@H](O)CO [chlorhexidine gluconate]
- solubility in water: ≥ 2100 mg/100 mL
